Measured values as given in patent US20090023807A1, “Treatment of Cytokine Dysregulation by Using Sn-2 Gamma-Linolenoyl, Gamma-Diho-Molinolenoyl or Arachidonoyl Patty Acid Glycerol Monoesters” (BTG International Limited, priority 2005, published 2009).

Key:
TNF-α = conditions: cited from earlier work
[1] = Storage stability and rearrangement of the monoglyceride; type: physicochemical
Source text: This exemplifies its potential for inclusion in air excluding formats such as capsules or e.g. collapsible bag containers which allow egress of oil without entry of air. A high purity process for its synthesis has also been published in Yang et al, Journal of the Chinese Institute of Chemical Engineers, 34, 617-623 (2003). These processes lend themselves to synthesis of n-3 and n-6 sn-2 monoglycerides by replacing the arachdonoyl or γ-linolenoyl source with the desired acyl group containing molecule.
Boric acid (2.81) g, 0.045 mol, 4 equivalents) was added to a freshly prepared solution of 1,3-O-benzylidene glycerol 2-octa-6Z,9Z,12Z-trienoate (5.0 g, 0.011 mol, 1 equivalent) in trimethyl borate (28 ml, 26.0 g, 0.25 mol, 22 equivalents) under N2. The mixture was stirred and heated in a sealed Teflon bomb at 90° C. for 15 minutes. The resulting cool solution was concentrated in vacuo and the residue heated at 90° C. under vacuum for 5 minutes. […] This process was repeated on the same scale twice more and the combined residues were dissolved in ether (150 ml) and washed with water (2×50 ml). The ether extract (not dried as MgSO4 promotes rearrangement) was concentrated in vacuo, ethanol added to the residue and the solution re-evaporated with ethanol (2×) to remove water. The residual tan oil (15.0 g) was purified by column chromatography on solica gel-boric acid (10:1) (10 g). Elution with DCM and then DCM-methanol (9:1) gave the product as a yellow oil (11.7 g, 73%) HPLC purity 93.4%. This material was stored in a freezer at −20° C. under N2.

[2] = Precipitation of the solubilised sn-2 monoglyceride; type: physicochemical; conditions: acid pH
TGF-β1 = TGF-β1 production from spleen mononuclear cells of mice fed the monoglyceride by gavage (ELISA); type: in vivo, SJL mice; conditions: fed 50 μg; for TGF-β1 production from spleen PBMCs: seven days by gavage
Procedure: After seven days animals were killed and the brain, liver and spleen were removed—the liver and brain frozen at −70° C. and mononuclear cells were isolated from spleens by sieving and density centrifugation on Lymphoprep (Sigma Chemical Co) and cultured at 37° C. in 5% CO2 atmosphere in 5 ml culture tubesat a cell density of 1×10^6 cells/ml in RPMI 1640 medium in 5% foetal calf serum (FCS). Cells were cultured with and without 1 μg/ml or 25 μg/ml concanavalin A (Con A) for approximately 20 hours and the supernatants removed and stored at −70° C. until required. Mouse TGF-β1 was measured in supernatants using a commercially available ELISA (Promega, Madison Wis.).

[3] = Tolerability of gavage feeding; type: in vivo, SJL mice; conditions: higher doses (of 50, 125 and 250 μl), seven days
CREAE = CREAE feeding study; type: in vivo
Source text: γ-Linolenic acid (18:3 n-6, or GLA) is known to be rapidly converted to longer-chain omega-6 polyunsaturated fatty acids dihomo-γ-linolenic acid and arachidonic acid in vivo (Phylactos et al 1994, Harbige et al 1995, 2000). Therefore to determine how to increase the level of membrane long chain omega-6 fatty acids in MS the inventors have reviewed their results obtained with several GLA-containing oils:-both fungal (from Mucor javanicus) and plant (Borago officianalis), Evening primrose Oenothera spp. or Blackcurrant Ribes spp) as well as a synthetic tri-GLA oil as GLA delivery systems in an in vivo experimental animal model of MS known as chronic relapsing experimental autoimmune encephalomyelitis (CREAE). […] Importantly blackcurrant seed oil has a low sn-2 GLA with most of the GLA in the sn-1 and sn-3 positions (Lawson and Hughes 1988). […] This would also be consistent with the sn-2 GLA being important i.e. the outer pair sn-1 and sn-3 GLA being enzymatically removed in vivo and probably undergoing oxidation leaving the sn-2 GLA only. This selective hydrolysis arises from the known ability of specific lipases to remove the sn-1 and sn-3 fatty acids from triacylgycerol molecules but an apparent protection of the sn-2 position in vivo (Lawson and Hughes 1988, Kyle 1990).

For `CCCCC/C=C\C/C=C\C/C=C\CCCCC(=O)OC(CO)CO` [Example 1b, glycerol 2-octa-6Z,9Z,12Z-trienoate], the “Activity in reducing TNF-α” value (TNF-α) is given as “inactive”, the Deterioration on storage ([1]; freezer at −20° C. under N2, 21 days) is given as “Little if any deterioration” and the “Rearrangement to the 1-γ-Linolenoyl glycerol isomer” value ([1]; when heated or treated with acids or bases) is given as “can undergo rearrangement”. The Deterioration on storage ([1]; yellow oil, −20° C. under nitrogen, several weeks at least) was “without deterioration”, the Precipitation [2] was “tendency to precipitate” and the “Change % of TGF-β1 production versus control” value (from here on “Change %”) (TGF-β1; Con A 0 μg/ml) was 80%. For the same molecule, the “Change %” value (TGF-β1; Con A 1 μg/ml) was 79%, the “Change %” value (TGF-β1; Con A 25 μg/ml) was 42% and the “TGF-β1 production from spleen PBMCs” value (TGF-β1; stimulated, Con A 1 μg/ml) was 409 pg/mL. For the same molecule, the “TGF-β1 production from spleen PBMCs” value (TGF-β1; stimulated, Con A 25 μg/ml) was 480 pg/mL, the “TGF-β1 production from spleen PBMCs” value (TGF-β1; unstimulated, Con A 0 μg/ml) was 377 pg/mL and the Regurgitation after gavage [3] was “prone to regurgitation”.
With `CCCCC/C=C\C/C=C\C/C=C\CCCCC(=O)OCC(COC(=O)CCCC/C=C\C/C=C\C/C=C\CCCCC)OC(=O)CCCC/C=C\C/C=C\C/C=C\CCCCC` [TG-GLA] the “Protective effects in CREAE” value (CREAE) was “protective effects similar to that of the borage oil”.
